Laboratory results taken from patent US20260294871A1, “PHARMACEUTICAL COMBINATIONS AND COMPOSITIONS THEREOF COMPRISING ANTIBACTERIAL AGENTS” (priority 2023, published 2026).
Like-named read-outs stand apart in the source and are kept apart here.

How the values were obtained:
K. pneumoniae [1] = assay: MIC by broth microdilution against Klebsiella; format: cell-based, Klebsiella pneumoniae
Method: (§1) In a typical study MIC tests were performed by broth microdilution in line with CLSI susceptibility testing standards. Bacterial inocula were prepared at ca. 1×10^6 CFU/mL by diluting 100-fold a 0.5 McFarland suspension in CA-MHB with TES. Microtiter plate wells containing 50 μL of antibacterial solutions at 2×the final concentrations were diluted 2-fold with 50 μL of inoculum to give a final inoculum of ca. 5×10^5 CFU/mL and desired test concentrations of antibacterial agents. Test microtiter plates were incubated according to CLSI guidelines and read visually. MIC values corresponded to the first well with no visible growth.
The results of antibacterial activity of amikacin, Ceftazidime-avibactam, Ceftriaxone with sulbactam and EDTA, Meropenem and Meropenem with avibactam and EDTA against highly resistant strains of Klebsiella (93. 3% Mem NS) are given in Table 4.

[2] = test system: Non-Enterobacteriaceae (non-fermenter isolates); assay: MIC by broth microdilution against Non-Enterobacteriaceae; format: cell-based
Method: as §1

P. aeruginosa [3] = assay: MIC by broth microdilution against P. aeruginosa; format: cell-based, Pseudomonas aeruginosa
Method: as §1
The results of antibacterial activity of amikacin, Ceftazidime-avibactam, Ceftriaxone with sulbactam and EDTA, Meropenem and Meropenem with avibactum and EDTA against highly resistant strains of P. aeruginosa are given in Table 5. As may be seen, the activity of the comparators was much lower although CRO/S4/E10 maximum MIC90 were much lower at ≤0.03 μg/mL.

Acinetobacter baumannii = assay: MIC by broth microdilution against Acinetobacter baumannii; format: cell-based
Method: as §1
The results of antibacterial activity of amikacin, Ceftazidime-avibactam, Ceftriaxone with sulbactam and EDTA, Meropenem and Meropenem with avibactum and EDTA against highly resistant strains of Acinetobacter baumannii are given in Table 7.

E. coli [4] = assay: Frequency of Resistance (FOR) Study, E. coli; format: cell-based
Method: (§2) Objective: The in-vitro study was conducted to determine the frequency of resistance in 8 characterized isolates.
(§3) • Isolates: 8 isolates-E. coli (3), K. pneumoniae (2), A. baumannii (1) and P. aeruginosa (2) • Compound tested: Meropenem; Meropenem Avibactam (4); Meropenem EDTA (10 mM); Meropenem Avibactam (4) EDTA (10 mM) • Antibiotic Concentration used: […]

P. aeruginosa [5] = assay: Frequency of Resistance (FOR) Study, P. aeruginosa; format: cell-based; also: key: TMTC: To more to count
Method: as §2, §3

K. pneumoniae [6] = assay: Frequency of Resistance (FOR) Study, K. pneumoniae; format: cell-based
Method: as §2, §3

A. baumannii = assay: Frequency of Resistance (FOR) Study, A. baumannii; also: key: TMTC: To more to count; format: cell-based; conditions: strain 8 - A. baumannii
Method: as §2, §3

K. pneumoniae [7] = assay: MIC of Time Kill Assay isolates, K. pneumoniae; format: cell-based; conditions: Klebsiella pneumoniae; TKA isolates
Method: Objective: The in-vitro Time Kill Assay study was conducted to determine the log reduction in 5 characterised MDR isolates.
• Isolates: 5 isolates-E. coli (3), K. pneumoniae (2) • Compound tested: Meropenem; Meropenem Avibactam (4); Meropenem EDTA (10 mM); Meropenem Avibactam (4) EDTA (10 mM) • 1 log—90% killing, 2 log 99% killing and 3 log 99.9% killing. Bactericidal: 3 log reduction (99.9% killing) • MIC: […]

[8] = test system: E. coli, K. pneumoniae, P. aeruginosa A. baumannii and E. cloacae; assay: Effects of body fluids on MIC, all tested isolates; format: cell-based, Gram-negatives clinical isolates
Method: Objective: The combinations of meropenem (MEM) in the presence of different concentrations of avibactam (AVI) and EDTA were tested. The triple combination test compounds were investigated for in-vitro activity in presence cation-adjusted Mueller Hinton broth (CA-MHB) and CA-MHB supplemented with different body fluids i.e. human serum (25% and 50%), pooled urine (25% and 50%), bovine Surfactant (1 and 5%) and human peritoneal fluid (25 and 50%) against the a set of Gram-negatives clinical isolates from India.
Method: The tolerance screening was performed on a total of 60 isolates to ascertain tolerance to body fluids and total 19 isolates including ATCC strains and non-duplicate clinically relevant Escherichia coli (n=6), Klebsiella pneumoniae (n=3), Pseudomonas aeruginosa (n=6) Acinetobacter baumannii (n=3) and Enterobacter cloacae (n=1) were selected prior to susceptibility testing. Tested compounds included Meropenem with AVI at 4 and EDTA at 10 mM (MEM/A4/E10), Meropenem with AVI at 4 and EDTA at 20 mM (MEM/A4/E20), Meropenem with AVI at 8 and EDTA at 10 mM (MEM/A8/E10), Meropenem with AVI at 8 and EDTA at 20 mM (MEM/A8/E20), Meropenem (MEM), Ceftriaxone with sulbactam at […] and EDTA at 10 mM (CRO/S10/E10), Ceftazidime-avibactam (CZA), Amikacin (AMK), Tigecycline and Minocycline. […]

E. coli [9] = conditions: cited from earlier work

C[C@@H](O)[C@H]1C(=O)N2C(C(=O)O)=C(S[C@@H]3CN[C@H](C(=O)N(C)C)C3)[C@H](C)[C@H]12 [Meropenem, (4R,5S,6S)-3-(((3S,5S)-5-(dimethylcarbamoyl)pyrrolidin-3-yl)thio)-6-((R)-1-hydroxyethyl)-4-methyl-7-oxo-1-azabicyclo[3.2.0]hept-2-ene-2-carboxylic acid]
MIC50 (K. pneumoniae [1]; Klebsiella pneumoniae, MEM-NS isolates (n=112), read-out: MIC50): > 32 µg/mL | MIC90 (K. pneumoniae [1]; Klebsiella pneumoniae, highly resistant strains, read-out: MIC90): > 32 µg/mL | MIC90 (K. pneumoniae [1]; MEM-NS isolates (n=112)): > 32 µg/mL | MIC50 (K. pneumoniae [1]; highly resistant strains): >32 µg/mL | MIC90 (K. pneumoniae [1]; highly resistant strains): >32 µg/mL | MEM-NS isolates (K. pneumoniae [1]; n=112, listed as MEM): 93.3% | MIC50 [2]: > 32 µg/mL | MIC90 [2]: > 32 µg/mL | MIC50 ([2]; highly resistant strains): >32 µg/mL | MIC90 ([2]; highly resistant strains): >32 µg/mL | MIC90 ([2]; highly resistant strains, listed as MEM): > 32 µg/mL | MEM-NS isolates ([2]; n=284): 88.9% | MIC90 (P. aeruginosa [3]; MEM-NS isolates (n=120)): > 32 µg/mL | MIC50 (P. aeruginosa [3]; Pseudomonas aeruginosa, highly resistant strains): > 32 µg/mL | MIC90 (P. aeruginosa [3]; Pseudomonas aeruginosa, highly resistant strains, read-out: MIC90): > 32 µg/mL | MIC90 (P. aeruginosa [3]; highly resistant strains): >32 µg/mL | MEM-NS isolates (P. aeruginosa [3]; n=120): 92.7% | MIC90 (Acinetobacter baumannii; Acinetobacter baumannii): > 32 µg/mL | MIC50 (Acinetobacter baumannii; Acinetobacter baumannii, highly resistant strains): > 32 µg/mL | MIC90 (Acinetobacter baumannii; MEM-NS isolates (n=163)): > 32 µg/mL | MIC90 (Acinetobacter baumannii; highly resistant strains): >32 µg/mL | MEM-NS isolates (Acinetobacter baumannii; n=163): 98.2% | count, 24 H of Incubation (E. coli [4]; strain 1 - E. coli, ATB concentration 4x): 0 | count, 24 H of Incubation (E. coli [4]; strain 1 - E. coli, ATB concentration 8x): 0 | count, 24 H of Incubation (E. coli [4]; strain 1 - E. coli, ATB concentration 16x): 0 | count, 24 H of Incubation (E. coli [4]; strain 4 - E. coli, ATB concentration 4x): TMTC | count, 24 H of Incubation (E. coli [4]; strain 4 - E. coli, ATB concentration 8x): TMTC | count, 24 H of Incubation (E. coli [4]; strain 4 - E. coli, ATB concentration 16x): TMTC | count, 24 H of Incubation (E. coli [4]; strain 5 - E. coli, ATB concentration 4x): 0 | count, 24 H of Incubation (E. coli [4]; strain 5 - E. coli, ATB concentration 8x): 0 | count, 24 H of Incubation (E. coli [4]; strain 5 - E. coli, ATB concentration 16x): 0 | count, 24 H of Incubation (P. aeruginosa [5]; strain 2 - P. aeruginosa, ATB concentration 4x): TMTC | count, 24 H of Incubation (P. aeruginosa [5]; strain 2 - P. aeruginosa, ATB concentration 8x): TMTC | count, 24 H of Incubation (P. aeruginosa [5]; strain 2 - P. aeruginosa, ATB concentration 16x): TMTC | count, 24 H of Incubation (P. aeruginosa [5]; strain 3 - P. aeruginosa, ATB concentration 4x): TMTC | count, 24 H of Incubation (P. aeruginosa [5]; strain 3 - P. aeruginosa, ATB concentration 8x): TMTC | count, 24 H of Incubation (P. aeruginosa [5]; strain 3 - P. aeruginosa, ATB concentration 16x): TMTC | count, 24 H of Incubation (K. pneumoniae [6]; strain 6 - K. pneumoniae, ATB concentration 4x): TMTC | count, 24 H of Incubation (K. pneumoniae [6]; strain 6 - K. pneumoniae, ATB concentration 8x): 303 | count, 24 H of Incubation (K. pneumoniae [6]; strain 6 - K. pneumoniae, ATB concentration 16x): 0 | count, 24 H of Incubation (K. pneumoniae [6]; strain 7 - K. pneumoniae, ATB concentration 4x): TMTC | count, 24 H of Incubation (K. pneumoniae [6]; strain 7 - K. pneumoniae, ATB concentration 8x): TMTC | count, 24 H of Incubation (K. pneumoniae [6]; strain 7 - K. pneumoniae, ATB concentration 16x): TMTC | count, 24 H of Incubation (A. baumannii; ATB concentration 4x): TMTC | count, 24 H of Incubation (A. baumannii; ATB concentration 8x): TMTC | count, 24 H of Incubation (A. baumannii; ATB concentration 16x): TMTC | MIC (K. pneumoniae [7]): > 32 µg/mL | MIC [8]: > 32 µg/mL | CLSI Range of MIC (E. coli [9]): 0.008 to 0.06 µg/mL
